In ChEMBL document CHEMBL3352151, “In vitro and in vivo antibacterial evaluation and mechanistic study of ornithine based small cationic lipopeptides against antibiotic resistant clinical isolates” (Eur J Med Chem, 2014):
Values after ≈ are worked out from the molar mass of the structure shown.

How the values were obtained:
[1] = system: Enterococcus faecalis; assay: Antibacterial activity against clinical isolates of Enterococcus faecalis GMCH/B0091 after overnight incubation by microdilution broth assay; assay type: functional
[2] = Toxicity in albino mouse assessed as mortality at 90 mg/kg, iv; assay type: organism-based; set-up: dose 90 mg/kg, route intravenous; settings: in vivo
[3] = system: Mus musculus; assay: Toxicity in albino mouse assessed as mortality latency at 150 mg/kg, iv; assay type: organism-based; set-up: dose 150 mg/kg, route intravenous; settings: in vivo
[4] = system: Staphylococcus aureus; assay: Antibacterial activity against Staphylococcus aureus PGI/DML03149 infected in Swiss albino mouse assessed as log reduction at 5 mg/kg administered twice at 1 hr and 5 hrs post infection relative to control; assay type: functional
[5] = Toxicity in albino mouse assessed as mortality at 75 mg/kg, iv; assay type: organism-based; set-up: dose 75 mg/kg, route intravenous; settings: in vivo
[6] = Toxicity in albino mouse assessed as mortality at 15 mg/kg, iv; assay type: organism-based; set-up: dose 15 mg/kg, route intravenous; settings: in vivo
[7] = system: Mus musculus; assay: Toxicity in albino mouse assessed as mortality latency at 90 mg/kg, iv; assay type: organism-based; set-up: dose 90 mg/kg, route intravenous; settings: in vivo
[8] = Toxicity in albino mouse assessed as mortality at 120 mg/kg, iv; assay type: organism-based; set-up: dose 120 mg/kg, route intravenous; settings: in vivo
[9] = Membrane permeabilization activity assessed as release of calcein from liposomes at 1:50 lipopeptide:lipid molar ratio after 5 mins by fluorescence assay
[10] = Toxicity in albino mouse assessed as mortality at 60 mg/kg, iv; assay type: organism-based; set-up: dose 60 mg/kg, route intravenous; settings: in vivo
[11] = system: Escherichia coli; assay: Induction of membrane damage in Escherichia coli PGI/DML02292 at 6 ug/ml after 30 mins by propidium iodide staining-based flow cytometry relative to control; assay type: functional
[12] = system: Mus musculus; assay: Toxicity in albino mouse assessed as mortality latency at 60 mg/kg, iv; assay type: organism-based; set-up: dose 60 mg/kg, route intravenous; settings: in vivo
[13] = system: Mus musculus; assay: Toxicity in albino mouse assessed as mortality latency at 45 mg/kg, iv; assay type: organism-based; set-up: dose 45 mg/kg, route intravenous; settings: in vivo
[14] = system: Staphylococcus epidermidis; assay: Antibacterial activity against clinical isolates of Staphylococcus epidermidis GMCH/B0057 after overnight incubation by microdilution broth assay; assay type: functional
[15] = system: Staphylococcus aureus; assay: Antibacterial activity against clinical isolates of Staphylococcus aureus PGI/DML03054 after overnight incubation by microdilution broth assay; assay type: functional
[16] = system: Escherichia coli; assay: Antibacterial activity against Escherichia coli PGI/DML02292 infected in Swiss albino mouse assessed as log reduction at 5 mg/kg administered at 1 hr post infection relative to control; assay type: functional
[17] = system: Mus musculus; assay: Toxicity in albino mouse assessed as anorexia at 45 to 150 mg/kg, iv measured for 14 days; assay type: organism-based; set-up: dose 45-150 mg/kg, route intravenous; settings: in vivo, 336 h
[18] = Toxicity in albino mouse assessed as mortality at 1 mg/kg, iv; assay type: organism-based; set-up: dose 1 mg/kg, route intravenous; settings: in vivo
[19] = Cytotoxicity against human HaCaT cells assessed as cell viability at 500 ug/ml after 18 hrs by MTT assay; assay type: cell-based; settings: read-out: Activity
[20] = Membrane permeabilization activity assessed as release of calcein from liposomes at 1:10 lipopeptide:lipid molar ratio after 5 mins by fluorescence assay

Structure (SMILES): CCCCCCCCCCCCCC(=O)NC(CCCN)C(=O)NC(CCCN)C(=O)NC(CCCN)C(N)=O (stereo not given)
- MIC [1]: 1.5 µg/mL (≈ 2.63 µM)
- mortality [2]: 60%
- Time [3]: > 48 h
- FC [4]: 4.15
- mortality [5]: 40%
- mortality [6]: 0%
- Time [7]: > 96 h
- mortality [8]: 75%
- Activity [9]: 51%
- mortality [10]: 25%
- Activity [11]: 54%
- Time [12]: > 120 h
- Time [13]: > 168 h
- MIC [14]: 3.5 µg/mL (≈ 6.14 µM)
- MIC [15]: 2.5 µg/mL (≈ 4.39 µM)
- FC [16]: 3.68
- Activity [17]: Toxic
- mortality [18]: 0%
- viability at 18 h, 500 ug/ml [19]: 25%
- Activity [20]: 91%
